Converted amounts (≈) assume the structure as drawn.
Key:
Assay type in all cases: cell-based
[1] = system: Plasmodium falciparum TM91C235; test: In vitro antimalarial [3H]-hypoxanthine incorporation assay, TM91C235; settings: Plasmodium falciparum; P. falciparum TM91C235 (multiple drug resistant isolate), 72 hours exposure
In short: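 Growth was read by [3H]-hypoxanthine incorporation after 72 h total incubation, as CPM normalized to the mean of untreated infected controls. Erythrocytic-stage TM91C235 (0.4% parasitemia, 1% hematocrit, ALBUMAX medium without folate or PABA, 5% O2/5% CO2, 37° C) was first exposed 48 h to compound at three levels, 25–25,000 ng/ml, in duplicate.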

[2] = system: Plasmodium falciparum clone CDC/Sierra Leone I (D-6); test: In vitro antimalarial [3H]-hypoxanthine incorporation serial dilution assay, D6; settings: Plasmodium falciparum, D6, 72 h, P. falciparum D6, 72 hours exposure; read-out: IC50 D6
In short: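 IC50 came from logistic fitting of eleven two-fold compound dilutions, read as [3H]-hypoxanthine uptake into parasite DNA relative to untreated infected wells after 72 h. Parasites were grown in A+ human erythrocytes (6%) in RPMI-1640 with plasma or ALBUMAX at 37° C, 5% CO2, 5% O2.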

[3] = system: Plasmodium falciparum clone CDC/Indochina III (W-2); test: In vitro antimalarial [3H]-hypoxanthine incorporation serial dilution assay, W2; settings: Plasmodium falciparum; P. falciparum W2, 72 hours exposure
Text: The in vitro screens for intrinsic antimalarial activity were based on modifications of the procedures described by Desjardins R E, Canfield C J, Haynes J D, Chulay J D. (Quantitative assessment of antimalarial activity in vitro by a semiautomated microdilution technique. Antimicrob Agents Chemother. 1979 December; 16(6):710-8.), Chulay J D, Haynes J D, Diggs C L. (Plasmodium falciparum: Assessment of in vitro growth by [3H]hypoxanthine incorporation. Exp. Parasitol. 1983 55:138-146.), and Milhous W K, Weatherly N F, Bowdre J H, Desjardins R E. (In vitro activities of and mechanisms of resistance to antifol antimalarial drugs. Antimicrob Agents Chemother. 1985 April; 27(4):525-30.). The system was limited to the assessment of the intrinsic activity against the erythrocytic asexual life cycle (blood schizontocides). Two Plasmodium falciparum clones from CDC/Indochina III (W-2) and CDC/Sierra Leone I (D-6) (Oduola A M, Weatherly N F, Bowdre J H, Desjardins R E. Plasmodium falciparum: cloning by single-erythrocyte micromanipulation and heterogeneity in vitro. Exp Parasitol. 1988 66(1):86-95.) were used for all assays. TM91C235, a multiple drug resistant isolate from Thailand, was used for the prescreening assay. W-2 is resistant to chloroquine, quinine, and pyrimethamine and susceptible to mefloquine. D-6 tends to be more resistant to mefloquine and susceptible to chloroquine, quinine, and pyrimethamine. All documents cited in this paragraph are incorporated by reference in their entirety.
All parasites were maintained in continuous long term cultures in RPMI-1640 medium supplemented with 6% washed human A positive (A+)(erythrocytes, 25 mM Hepes, […], and 10% heat inactivated A+human plasma or ALBUMAX® (lipid-rich bovine serum albumin; Invitrogen, Carlsbad, Calif.). All cultures and assays were conducted at 37° C. under an atmosphere of 5% CO2 and 5% O2, with a balance of N2.
After the preincubation, [^3H]-hypoxanthine was added to each well of the MTP. (The assay relies on the incorporation of radiolabeled hypoxanthine by the parasites, which indicates reproduction, and inhibition of isotope incorporation was attributed to activity of known or candidate antimalarial drugs). After 72 hr of total incubation time, the MTP were frozen to lyse the erythrocytes and parasites. The parasite DNA was recovered by harvesting the lysate onto glass-fiber filter plates using a Packard FilterMate™ Cell Harvester. The radioactivity was counted on a Packard TopCount™ microplate scintillation counter. The results were recorded as counts per minutes (CPM) per well at each drug concentration divided by the arithmetic mean of the CPM from the three untreated infection parasite control wells.
The serial dilution assay was conducted using the same assay conditions and stock solution of the compound used for the preliminary screen, described above. Both the D-6 and the W-2 clones were used. The compounds were diluted two-fold over 11 different concentration ranges with a starting concentration that was based on the preliminary screen. For each drug, the concentration response profile was determined and 50% inhibitory concentrations (IC50) were determined by using a non-linear, logistic dose response analysis program. […] For each assay, the IC50 for each clone was determined against the known antimalarials chloroquine and mefloquine. These control values established the compound's relative parasite susceptibility profile compared to known antimalarials. […]
The in vitro potency of the compounds has been compared with that of azithromycin to better gauge compounds suitable for further testing. As described above, parasites were exposed for 72 hours. Data from the in vitro potency tests of azithromycin against the three parasite strains have been averaged, and these numbers have been used for identification of “active” macrolide compounds.

Structure (SMILES) | IC50 [1] [µg/mL] | IC50 [2] [µg/mL] | IC50 [3] [µg/mL]
CC[C@H]1OC(=O)[C@H](C)[C@@H](O[C@H]2C[C@@](C)(OC)[C@@H](O)[C@H](C)O2)[C@H](C)[C@@H](O[C@@H]2O[C@H](C)C[C@H](N(C)C)[C@H]2O)[C@](C)(O)C[C@@H](C)CN(CCCNC(=S)Nc2ccc(Cl)c(Cl)c2)[C@H](C)[C@@H](O)[C@]1(C)O [Example 132] | 0.0839 (≈ 0.0842 µM) | 0.295 (≈ 0.296 µM) | 0.229 (≈ 0.229 µM)
CC[C@H]1OC(=O)[C@H](C)[C@@H](O[C@H]2C[C@@](C)(OC)[C@@H](O)[C@H](C)O2)[C@H](C)[C@@H](O[C@@H]2O[C@H](C)C[C@H](N(C)C)[C@H]2O)[C@](C)(O)C[C@@H](C)CN(CCCN(CCC(N)=O)C(=S)NCCc2ccccc2)[C@H](C)[C@@H](O)[C@]1(C)O [Example 166, 9-Deoxo-9-dihydro-9a-{N′-(β-amidoethyl)-N′-[β-(phenylethyl)thiocarbamoyl]-γ-aminopropyl}-9a-aza-9a-homoerythromycin A] | 0.161 (≈ 0.157 µM) | 0.458 (≈ 0.446 µM) | 0.23 (≈ 0.224 µM)
CC[C@H]1OC(=O)[C@H](C)[C@@H](O[C@H]2C[C@@](C)(OC)[C@@H](O)[C@H](C)O2)[C@H](C)[C@@H](O[C@@H]2O[C@H](C)C[C@H](N(C)C)[C@H]2O)[C@](C)(O)C[C@@H](C)CN(CCCNC(=S)NC(c2ccccc2)(c2ccccc2)c2ccccc2)[C@H](C)[C@@H](O)[C@]1(C)O.O=CO [Example 125] | 0.0364 | 0.142 | 0.0422
CC[C@H]1OC(=O)[C@H](C)[C@@H](O[C@H]2C[C@@](C)(OC)[C@@H](O)[C@H](C)O2)[C@H](C)[C@@H](O[C@@H]2O[C@H](C)C[C@H](N(C)C)[C@H]2O)[C@](C)(O)C[C@@H](C)CN(CCCNC(=S)NCC(C)C)[C@H](C)[C@@H](O)[C@]1(C)O.O=CO [Example 149] | 0.414 | 0.657 | 0.472
CC[C@H]1OC(=O)[C@H](C)[C@@H](O[C@H]2C[C@@](C)(OC)[C@@H](O)[C@H](C)O2)[C@H](C)[C@@H](O[C@@H]2O[C@H](C)C[C@H](N(C)C)[C@H]2O)[C@](C)(O)C[C@@H](C)CN(CCCNC(=S)Nc2ccc(S(=O)(=O)N3CCCCC3)cc2)[C@H](C)[C@@H](O)[C@]1(C)O [Example 141] | 0.0731 (≈ 0.068 µM) | 0.188 (≈ 0.175 µM) | 0.057 (≈ 0.0531 µM)
CC[C@H]1OC(=O)[C@H](C)[C@@H](O[C@H]2C[C@@](C)(OC)[C@@H](O)[C@H](C)O2)[C@H](C)[C@@H](O[C@@H]2O[C@H](C)C[C@H](N(C)C)[C@H]2O)[C@](C)(O)C[C@@H](C)CN(CCCNC(=S)NC(=O)c2ccccc2)[C@H](C)[C@@H](O)[C@]1(C)O [Example 100] | 0.275 (≈ 0.288 µM) | 0.284 (≈ 0.298 µM) | 0.102 (≈ 0.107 µM)
CC[C@H]1OC(=O)[C@H](C)[C@@H](O[C@H]2C[C@@](C)(OC)[C@@H](O)[C@H](C)O2)[C@H](C)[C@@H](O[C@@H]2O[C@H](C)C[C@H](N(C)C)[C@H]2O)[C@](C)(O)C[C@@H](C)CN(CCCNC(=S)Nc2ccc(C)cc2)[C@H](C)[C@@H](O)[C@]1(C)O [Example 97] | 0.154 (≈ 0.164 µM) | 0.311 (≈ 0.33 µM) | 0.0671 (≈ 0.0713 µM)
CC[C@H]1OC(=O)[C@H](C)[C@@H](O[C@H]2C[C@@](C)(OC)[C@@H](O)[C@H](C)O2)[C@H](C)[C@@H](O[C@@H]2O[C@H](C)C[C@H](N(C)C)[C@H]2O)[C@](C)(O)C[C@@H](C)CN(CCCNC(=S)Nc2cc(-c3ccccc3)ccc2OC)[C@H](C)[C@@H](O)[C@]1(C)O [Example 127] | 0.0571 (≈ 0.0553 µM) | 0.06 (≈ 0.0581 µM) | 0.117 (≈ 0.114 µM)
CC[C@H]1OC(=O)[C@H](C)[C@@H](O[C@H]2C[C@@](C)(OC)[C@@H](O)[C@H](C)O2)[C@H](C)[C@@H](O[C@@H]2O[C@H](C)C[C@H](N(C)C)[C@H]2O)[C@](C)(O)C[C@@H](C)CN(CCCNC(=O)NC2CCN(C(=O)OCc3ccccc3)CC2)[C@H](C)[C@@H](O)[C@]1(C)O.O=CO [Example 91] | 0.259 | 0.698 | 0.303

Reference: patent publication US20080200404A1, “Novel Antimalarial 9A-Carbamoyl-Aminoalkyl and 9A-Thiocarbamoyl-Aminoalkyl Azalides” (priority 2005, published 2008)
